We go through one molecule from publication PMC12983307 (Journal of the American Chemical Society, 2026).

Bridge positions count the residues as written; N and C are the ends. Peptide text beside a SMILES is read from it.

This experiment deals with AgrC (Staphylococcus aureus, UniProt O07911). The experiment can be described thus: fluorescence polarization displacement of TAMRA-AIP-III D4A from AgrC nanodiscs. The experiment is classed as binding. The settings on record: read-out: % reduction in polarization at 10 μM. (Fluorescence polarisation rises when a labelled molecule tumbles more slowly, as on binding a larger partner.)
AgrC, sequence (O07911 entry or part of it): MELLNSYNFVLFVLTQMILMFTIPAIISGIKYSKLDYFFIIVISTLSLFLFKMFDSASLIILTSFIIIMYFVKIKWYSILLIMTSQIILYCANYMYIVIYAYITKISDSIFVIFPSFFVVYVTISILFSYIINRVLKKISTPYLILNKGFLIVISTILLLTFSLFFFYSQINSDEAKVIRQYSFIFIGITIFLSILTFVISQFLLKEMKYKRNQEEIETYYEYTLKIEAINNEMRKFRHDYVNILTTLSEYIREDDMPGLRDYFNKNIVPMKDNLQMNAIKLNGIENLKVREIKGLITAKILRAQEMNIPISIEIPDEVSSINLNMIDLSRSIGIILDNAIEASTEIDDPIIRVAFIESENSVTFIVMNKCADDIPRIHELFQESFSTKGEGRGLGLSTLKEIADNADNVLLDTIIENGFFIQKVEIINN

Take `CC[C@H](C)[C@@H]1NC(=O)[C@H](Cc2ccccc2)NC(=O)[C@H](CC(=O)O)NC(=O)[C@@H](NC(=O)[C@@H](NC(=O)[C@H](CO)NC(=O)[C@@H](N)Cc2ccc(O)cc2)[C@@H](C)O)CSC(=O)[C@H](CCSC)NC1=O` [AIP-I] (H-YSTCDFIM; thioester 4-C): the inhibition at 10 µM was 62%.
